Source: the supplement of paper PMC11061612

Key:
Assay in all cases: combination Emax (second highest fraction inhibited in the dose matrix, 72 h); higher = more inhibition; extreme values may be limits of the assay
[1] = tested on: KYSE-50 (Esophageal Squamous Cell Carcinoma)
Method in brief: (§1)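 Cell lines grown in DMEM/F12 or RPMI with 10% FBS were plated in 1536-well plates and held 24 hours at 37°C, 5% CO2 before 72 hours of exposure to two-drug dose matrices, with DMSO typically at 0.2%. CellTiter-Glo 2.0 luminescence gave viability, which was converted to inhibition. Vehicle wells were set to 0 and blank wells to 1. Combination Emax is the second-highest inhibition in the matrix, and Bliss excess is the observed combination effect minus the expected EA + EB − EA·EB, where EA and EB are the single-agent effects.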

[2] = tested on: EMC-BAC-2 (Non-Small Cell Lung Carcinoma)
Method in brief: as §1

[3] = tested on: LOU-NH91 (Squamous Cell Lung Carcinoma)
Method in brief: as §1

[4] = tested on: KP-2 (Pancreatic Carcinoma)
Method in brief: as §1

[5] = tested on: PF-382 (T-Lymphoblastic Leukemia)
Method in brief: as §1

GI-1 (Glioblastoma) = tested on: GI-1 (Glioblastoma)
Method in brief: as §1

[6] = tested on: TGBC11TKB (Gastric Carcinoma)
Method in brief: as §1

NB7 (Neuroblastoma) = tested on: NB7 (Neuroblastoma)
Method in brief: as §1

RPMI-7951 (Melanoma) = tested on: RPMI-7951 (Melanoma)
Method in brief: as §1

[7] = tested on: KYSE-150 (Esophageal Squamous Cell Carcinoma)
Method in brief: as §1

[8] = tested on: NCI-H513 (Other Solid Carcinomas)
Method in brief: as §1

[9] = tested on: OCUB-M (Breast Carcinoma)
Method in brief: as §1

[10] = tested on: NCI-N87 (Gastric Carcinoma)
Method in brief: as §1

NH-12 (Neuroblastoma) = tested on: NH-12 (Neuroblastoma)
Method in brief: as §1

[11] = tested on: MFE-319 (Endometrial Carcinoma)
Method in brief: as §1

[12] = tested on: KU-19-19 (Bladder Carcinoma)
Method in brief: as §1

[13] = tested on: NCI-H1573 (Lung Adenocarcinoma)
Method in brief: as §1

[14] = tested on: H-EMC-SS (Chondrosarcoma)
Method in brief: as §1

EW-3 (Ewing's Sarcoma) = tested on: EW-3 (Ewing's Sarcoma)
Method in brief: as §1

[15] = tested on: SNU-C1 (Colorectal Carcinoma)
Method in brief: as §1

Structure (SMILES) | combination Emax [1] | combination Emax [2] | combination Emax [3] | combination Emax [4] | combination Emax [5] | combination Emax (GI-1 (Glioblastoma)) | combination Emax [6] | combination Emax (NB7 (Neuroblastoma)) | combination Emax (RPMI-7951 (Melanoma)) | combination Emax [7] | combination Emax [8] | combination Emax [9] | combination Emax [10] | combination Emax (NH-12 (Neuroblastoma)) | combination Emax [11] | combination Emax [12] | combination Emax [13] | combination Emax [14] | combination Emax (EW-3 (Ewing's Sarcoma)) | combination Emax [15]
NC1(C(=O)N[C@@H](CCO)c2ccc(Cl)cc2)CCN(c2ncnc3[nH]ccc23)CC1 [Capivasertib] + C[C@@H]1COCCN1C2=NC(=NC(=C2)C3(CC3)[S@](=N)(=O)C)C4=C5C=CNC5=NC=C4 [AZD6738] (first compound max 10 µM, 7x7, partner max 10 µM) | 0.676 | 0.728 | 0.569 | 0.17 | 0.974 | 0.944 | 0.778 | 0.635 | 0.892 | 0.681 | 0.386 | 1 | 0.781 | 0.832 | 0.787 | 0.69 | 0.618 | 0.526 | 0.87 | 0.533
C=CCn1c(=O)c2cnc(Nc3ccc(N4CCN(C)CC4)cc3)nc2n1-c1cccc(C(C)(C)O)n1 [AZD1775] + O=C(c1cc(Cc2n[nH]c(=O)c3ccccc23)ccc1F)N1CCN(C(=O)C2CC2)CC1 [Olaparib] (first compound max 1 µM, partner max 10 µM) | 0.301 | 0.269 | 0.383 | 0.225 | 0.976 | 0.917 | 0.794 | 0.632 | 0.766 | 0.493 | 0.389 | 0.504 | 0.711 | 0.906 | 0.619 | 0.804 | 0.325 | 0.333 | 0.661 | 0.313
Cn1cnc2c(F)c(Nc3ccc(Br)cc3Cl)c(C(=O)NOCCO)cc21 [Selumetinib] + C=CCn1c(=O)c2cnc(Nc3ccc(N4CCN(C)CC4)cc3)nc2n1-c1cccc(C(C)(C)O)n1 [AZD1775] (first compound max 10 µM, partner max 1 µM) | 0.605 | 0.412 | 0.423 | 0.54 | 0.974 | 0.74 | 0.912 | 0.619 | 0.741 | 0.453 | 0.406 | 0.0588 | 0.712 | 0.891 | 0.671 | 0.917 | 0.417 | 0.23 | 0.269 | 0.627
COc1nnc2ccc(N3CCC(c4ccc(OCCN5CCN(C)C(=O)[C@H]5C)cc4)CC3)nn12 [AZD5153] + Cn1cnc2c(F)c(Nc3ccc(Br)cc3Cl)c(C(=O)NOCCO)cc21 [Selumetinib] (first compound max 1 µM, 7x7, partner max 10 µM) | 0.697 | 0.738 | 0.63 | 0.54 | 0.903 | 0.705 | 0.683 | 0.45 | 0.677 | 0.661 | 0.499 | 0.534 | 0.567 | 0.729 | 0.579 | 1 | 0.755 | 0.368 | 0.629 | 0.83
CN(C)CCCOc1ccc(-c2ccc3ncc4c(c3c2)n(C2CCOCC2)c(=O)n4C)cn1 [AZD0156] + C=CCn1c(=O)c2cnc(Nc3ccc(N4CCN(C)CC4)cc3)nc2n1-c1cccc(C(C)(C)O)n1 [AZD1775] (first compound max 1 µM, partner max 1 µM) | 0.27 | 0.304 | 0.371 | 0.147 | 0.954 | 0.88 | 0.895 | 0.6 | 0.687 | 0.448 | 0.393 | 0.209 | 0.726 | 0.877 | 0.63 | 0.751 | 0.159 | 0.346 | 0.357 | 0.295
C[C@@H]1COCCN1c1cc(C2([S@](C)(=N)=O)CC2)nc(-c2ccnc3[nH]ccc23)n1 [AZD6738] + O=C(c1cc(Cc2n[nH]c(=O)c3ccccc23)ccc1F)N1CCN(C(=O)C2CC2)CC1 [Olaparib] (first compound max 10 µM, 7x7, partner max 10 µM) | 0.437 | 0.446 | 0.236 | 0.142 | 0.916 | 0.926 | 0.796 | 0.944 | 0.886 | 0.567 | 0.362 | 0.634 | 0.693 | 0.867 | 0.567 | 0.767 | 0.531 | 0.419 | 0.962 | 0.347
CS(=O)(=O)CCNCc1ccc(-c2ccc3ncnc(Nc4ccc(OCc5cccc(F)c5)c(Cl)c4)c3c2)o1 [Lapatinib] + NC1(c2ccc(-c3nc4ccn5c(=O)[nH]nc5c4cc3-c3ccccc3)cc2)CCC1 [MK-2206] (first compound max 10 µM, 7x7, partner max 10 µM) |  |  |  |  | 0.974 | 0.899 | 0.418 | 0.821 |  | 0.954 | 0.386 | 1 | 0.977 |  | 0.946 | 0.837 | 0.723 | 0.316 | 0.87 | 0.631
Cc1c2c(nn1C)CSCc1cc(n(C)n1)CSc1cc(c3ccccc3c1)OCCCc1c(C(=O)O)n(C)c3c-2c(Cl)ccc13 [AZD5991] + C=CCn1c(=O)c2cnc(Nc3ccc(N4CCN(C)CC4)cc3)nc2n1-c1cccc(C(C)(C)O)n1 [AZD1775] (first compound max 1 µM, partner max 1 µM) | 0.618 | 0.842 | 0.556 |  | 0.961 | 0.958 | 0.922 | 0.869 | 0.957 | 0.634 | 0.532 | 0.984 | 0.727 | 0.918 | 0.913 | 0.891 | 0.427 | 0.399 | 0.701 | 0.395
CN(CCO)CC[C@H](CSc1ccccc1)Nc1ccc(S(=O)(=O)NC(=O)c2ccc(N3CCC([C@@H](O)c4ccccc4-c4ccc(Cl)cc4)CC3)cc2)cc1S(=O)(=O)C(F)(F)F [AZD4320] + C1CN(CCC1(C(=O)N[C@@H](CCO)C2=CC=C(C=C2)Cl)N)C3=NC=NC4=C3C=CN4 [Capivasertib] (first compound max 1 µM, 7x7, partner max 3 µM) | 0.0686 | 0.301 | 0.494 | 0.842 | 0.98 | 0.627 | 0.182 | 0.0214 | 0.54 | 0.347 | 0.122 | 1 | 0.571 | 0.886 |  | 0.174 | 0.575 | 0.753 | 0.918 | 0.775
COc1nnc2ccc(N3CCC(c4ccc(OCCN5CCN(C)C(=O)[C@H]5C)cc4)CC3)nn12 [AZD5153] + CN(CC[C@H](CSC1=CC=CC=C1)NC2=C(C=C(C=C2)S(=O)(=O)NC(=O)C3=CC=C(C=C3)N4CCC(CC4)[C@H](C5=CC=CC=C5C6=CC=C(C=C6)Cl)O)S(=O)(=O)C(F)(F)F)CCO [AZD4320] (first compound max 1 µM, 7x7, partner max 1 µM) | 0.732 | 0.661 | 0.781 | 0.945 | 1 |  |  |  | 0.647 | 0.607 | 0.409 |  |  | 0.91 | 0.476 | 0.755 | 0.356 |  |  | 
CC(=O)c1c(C)c2cnc(Nc3ccc(N4CCNCC4)cn3)nc2n(C2CCCC2)c1=O [Palbociclib] + CN(CC[C@H](CSC1=CC=CC=C1)NC2=C(C=C(C=C2)S(=O)(=O)NC(=O)C3=CC=C(C=C3)N4CCC(CC4)[C@H](C5=CC=CC=C5C6=CC=C(C=C6)Cl)O)S(=O)(=O)C(F)(F)F)CCO [AZD4320] (first compound max 10 µM, 7x7, partner max 1 µM) | 0.37 | 0.366 | 0.618 | 0.743 | 1 |  |  |  | 0.678 | 0.607 | 0.205 |  |  | 0.988 | 0.31 | 0.54 | 0.306 |  |  | 
C[C@@H](c1ccc2nccn2c1)n1nnc2ncc(-c3cnn(C)c3)nc21 [Savolitinib] + CN(CC[C@H](CSC1=CC=CC=C1)NC2=C(C=C(C=C2)S(=O)(=O)NC(=O)C3=CC=C(C=C3)N4CCC(CC4)[C@H](C5=CC=CC=C5C6=CC=C(C=C6)Cl)O)S(=O)(=O)C(F)(F)F)CCO [AZD4320] (first compound max 1 µM, 7x7, partner max 1 µM) | 0.188 | 0.216 | 0.334 | 0.855 | 0.993 |  |  |  | 0.271 | 0.219 | 0.113 |  |  | 0.824 | 0.191 | 0.194 | 0.218 |  |  | 
Cc1c2c(nn1C)CSCc1cc(n(C)n1)CSc1cc(c3ccccc3c1)OCCCc1c(C(=O)O)n(C)c3c-2c(Cl)ccc13 [AZD5991] + C1CN(CCC1(C(=O)N[C@@H](CCO)C2=CC=C(C=C2)Cl)N)C3=NC=NC4=C3C=CN4 [Capivasertib] (first compound max 1 µM, 7x7, partner max 3 µM) | 0.226 | 0.718 | 0.427 | 0.18 | 0.477 | 0.949 | 0.472 | 0.609 | 0.986 | 0.397 |  | 1 | 0.422 | 0.32 | 0.776 | 0.174 | 0.264 | 0.647 | 0.649 | 0.576
